Assay results taken from patent US12479847B2 (DANA-FARBER CANCER INSTITUTE, INC., priority 2019, dated 2025).

Columns and labels:
Experiment in all cases: KINOMEscan (ScanMAX) kinase profiling
Assay type in all cases: binding
panel of 468 kinases [1] = target: T1, panel of 468 kinases (Homo sapiens, UniProt O14936); conditions: CASK; 1 μM; read-out: % control
T1 construct: purchased KINOMEscan (ScanMAX) service
T1 sequence (O14936 1-926): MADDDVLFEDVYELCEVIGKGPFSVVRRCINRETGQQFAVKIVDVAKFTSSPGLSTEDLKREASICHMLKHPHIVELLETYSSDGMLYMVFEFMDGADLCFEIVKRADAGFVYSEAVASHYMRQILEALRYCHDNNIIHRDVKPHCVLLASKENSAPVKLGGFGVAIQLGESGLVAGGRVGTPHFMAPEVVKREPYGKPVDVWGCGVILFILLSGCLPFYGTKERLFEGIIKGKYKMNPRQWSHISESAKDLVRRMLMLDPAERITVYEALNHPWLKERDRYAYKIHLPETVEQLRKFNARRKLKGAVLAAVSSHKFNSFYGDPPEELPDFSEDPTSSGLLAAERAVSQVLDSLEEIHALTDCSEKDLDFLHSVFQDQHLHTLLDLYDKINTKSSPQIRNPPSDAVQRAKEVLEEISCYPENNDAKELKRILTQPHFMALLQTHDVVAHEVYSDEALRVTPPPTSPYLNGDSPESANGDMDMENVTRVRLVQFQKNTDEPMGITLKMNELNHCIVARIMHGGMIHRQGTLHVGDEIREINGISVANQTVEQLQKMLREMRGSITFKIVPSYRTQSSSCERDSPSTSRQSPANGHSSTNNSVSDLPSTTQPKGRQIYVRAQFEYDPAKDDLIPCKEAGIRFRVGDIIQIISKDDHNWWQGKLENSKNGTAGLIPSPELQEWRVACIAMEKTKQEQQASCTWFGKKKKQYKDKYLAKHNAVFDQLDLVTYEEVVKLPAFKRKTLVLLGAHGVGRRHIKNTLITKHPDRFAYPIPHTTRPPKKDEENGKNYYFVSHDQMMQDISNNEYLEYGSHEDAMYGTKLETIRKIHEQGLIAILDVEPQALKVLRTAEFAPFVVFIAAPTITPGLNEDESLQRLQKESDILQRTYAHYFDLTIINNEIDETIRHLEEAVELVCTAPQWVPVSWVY

panel of 468 kinases [2] = target: T2, panel of 468 kinases (Homo sapiens, UniProt P28482); conditions: ERK2; 1 μM; read-out: % control
T2 construct: purchased KINOMEscan (ScanMAX) service

panel of 468 kinases [3] = target: T3, panel of 468 kinases (Homo sapiens, UniProt P29317); conditions: EPHA2; 1 μM; read-out: % control
T3 construct: purchased KINOMEscan (ScanMAX) service

panel of 468 kinases [4] = target: T4, panel of 468 kinases (Homo sapiens, UniProt P42336, Q546K); conditions: PIK3CA(Q546K); 1 μM; read-out: % control
T4 construct: purchased KINOMEscan (ScanMAX) service

panel of 468 kinases [5] = target: T5, panel of 468 kinases (Homo sapiens, UniProt P51955); conditions: NEK2; 1 μM; read-out: % control
T5 construct: purchased KINOMEscan (ScanMAX) service
T5 sequence (P51955 1-445): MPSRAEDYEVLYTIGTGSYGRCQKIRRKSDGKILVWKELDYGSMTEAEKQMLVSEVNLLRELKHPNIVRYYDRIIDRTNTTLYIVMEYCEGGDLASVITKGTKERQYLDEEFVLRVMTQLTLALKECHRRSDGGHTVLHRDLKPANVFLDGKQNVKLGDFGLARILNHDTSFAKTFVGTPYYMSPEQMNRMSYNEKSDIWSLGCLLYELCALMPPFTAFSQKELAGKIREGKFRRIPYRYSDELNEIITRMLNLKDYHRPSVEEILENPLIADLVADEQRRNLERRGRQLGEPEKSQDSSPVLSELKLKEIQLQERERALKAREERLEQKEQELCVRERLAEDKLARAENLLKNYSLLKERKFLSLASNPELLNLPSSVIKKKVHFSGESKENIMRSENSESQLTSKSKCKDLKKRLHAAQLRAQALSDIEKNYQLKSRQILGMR

panel of 468 kinases [6] = target: T6, panel of 468 kinases (Homo sapiens, UniProt Q13464); conditions: ROCK1; 1 μM; read-out: % control
T6 construct: purchased KINOMEscan (ScanMAX) service

panel of 468 kinases [7] = target: T7, panel of 468 kinases (Homo sapiens, UniProt Q96L34); conditions: MARK4; 1 μM; read-out: % control
T7 construct: purchased KINOMEscan (ScanMAX) service
T7 sequence (Q96L34 1-752): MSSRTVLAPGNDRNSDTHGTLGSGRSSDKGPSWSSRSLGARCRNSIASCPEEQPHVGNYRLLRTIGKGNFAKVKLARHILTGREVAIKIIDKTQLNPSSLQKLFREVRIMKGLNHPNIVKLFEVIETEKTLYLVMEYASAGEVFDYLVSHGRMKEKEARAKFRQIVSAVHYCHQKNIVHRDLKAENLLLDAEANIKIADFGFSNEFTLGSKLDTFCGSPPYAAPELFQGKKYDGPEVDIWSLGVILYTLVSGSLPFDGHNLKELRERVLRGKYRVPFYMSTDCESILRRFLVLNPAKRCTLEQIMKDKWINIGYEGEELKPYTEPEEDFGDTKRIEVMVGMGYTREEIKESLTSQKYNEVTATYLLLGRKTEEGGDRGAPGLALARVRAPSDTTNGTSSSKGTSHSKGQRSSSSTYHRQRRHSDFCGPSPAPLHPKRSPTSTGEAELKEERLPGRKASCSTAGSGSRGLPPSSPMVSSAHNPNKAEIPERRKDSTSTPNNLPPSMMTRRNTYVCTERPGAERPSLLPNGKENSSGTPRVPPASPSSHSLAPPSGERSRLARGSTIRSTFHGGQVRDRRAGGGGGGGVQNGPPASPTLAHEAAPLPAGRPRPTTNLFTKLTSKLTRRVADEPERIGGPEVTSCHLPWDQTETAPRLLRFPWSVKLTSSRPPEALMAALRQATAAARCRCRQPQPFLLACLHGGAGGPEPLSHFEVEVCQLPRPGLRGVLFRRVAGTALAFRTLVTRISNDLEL

panel of 468 kinases [8] = target: T8, panel of 468 kinases (Homo sapiens, UniProt Q96Q40); conditions: PFTAIRE2; 1 μM; read-out: % control
T8 construct: purchased KINOMEscan (ScanMAX) service

panel of 468 kinases [9] = target: T9, panel of 468 kinases (Homo sapiens, UniProt Q9BUB5); conditions: MKNK1; 1 μM; read-out: % control
T9 construct: purchased KINOMEscan (ScanMAX) service
T9 sequence (Q9BUB5 whole entry): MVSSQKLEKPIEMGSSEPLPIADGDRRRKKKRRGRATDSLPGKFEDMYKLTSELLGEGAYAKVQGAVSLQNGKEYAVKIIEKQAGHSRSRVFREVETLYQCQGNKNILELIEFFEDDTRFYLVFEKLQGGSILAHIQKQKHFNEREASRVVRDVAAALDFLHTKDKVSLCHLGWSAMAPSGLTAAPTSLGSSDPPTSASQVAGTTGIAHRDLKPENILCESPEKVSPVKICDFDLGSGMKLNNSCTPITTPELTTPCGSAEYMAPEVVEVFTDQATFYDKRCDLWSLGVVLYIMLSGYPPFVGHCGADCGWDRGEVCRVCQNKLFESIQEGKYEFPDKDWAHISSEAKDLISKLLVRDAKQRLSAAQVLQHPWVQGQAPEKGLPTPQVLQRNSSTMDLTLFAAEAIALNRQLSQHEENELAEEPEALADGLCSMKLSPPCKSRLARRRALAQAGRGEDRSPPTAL

T2 sequence (P28482 whole entry): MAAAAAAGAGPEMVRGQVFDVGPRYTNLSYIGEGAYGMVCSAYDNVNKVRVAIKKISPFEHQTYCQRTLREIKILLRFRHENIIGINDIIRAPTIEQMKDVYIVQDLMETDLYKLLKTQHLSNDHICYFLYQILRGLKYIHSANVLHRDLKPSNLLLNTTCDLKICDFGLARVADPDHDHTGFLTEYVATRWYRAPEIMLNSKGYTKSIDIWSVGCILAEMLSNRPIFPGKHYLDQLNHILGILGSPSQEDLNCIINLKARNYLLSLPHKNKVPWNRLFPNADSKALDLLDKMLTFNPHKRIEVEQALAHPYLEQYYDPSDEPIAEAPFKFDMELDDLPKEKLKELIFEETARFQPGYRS
T3 sequence (P29317 24-976): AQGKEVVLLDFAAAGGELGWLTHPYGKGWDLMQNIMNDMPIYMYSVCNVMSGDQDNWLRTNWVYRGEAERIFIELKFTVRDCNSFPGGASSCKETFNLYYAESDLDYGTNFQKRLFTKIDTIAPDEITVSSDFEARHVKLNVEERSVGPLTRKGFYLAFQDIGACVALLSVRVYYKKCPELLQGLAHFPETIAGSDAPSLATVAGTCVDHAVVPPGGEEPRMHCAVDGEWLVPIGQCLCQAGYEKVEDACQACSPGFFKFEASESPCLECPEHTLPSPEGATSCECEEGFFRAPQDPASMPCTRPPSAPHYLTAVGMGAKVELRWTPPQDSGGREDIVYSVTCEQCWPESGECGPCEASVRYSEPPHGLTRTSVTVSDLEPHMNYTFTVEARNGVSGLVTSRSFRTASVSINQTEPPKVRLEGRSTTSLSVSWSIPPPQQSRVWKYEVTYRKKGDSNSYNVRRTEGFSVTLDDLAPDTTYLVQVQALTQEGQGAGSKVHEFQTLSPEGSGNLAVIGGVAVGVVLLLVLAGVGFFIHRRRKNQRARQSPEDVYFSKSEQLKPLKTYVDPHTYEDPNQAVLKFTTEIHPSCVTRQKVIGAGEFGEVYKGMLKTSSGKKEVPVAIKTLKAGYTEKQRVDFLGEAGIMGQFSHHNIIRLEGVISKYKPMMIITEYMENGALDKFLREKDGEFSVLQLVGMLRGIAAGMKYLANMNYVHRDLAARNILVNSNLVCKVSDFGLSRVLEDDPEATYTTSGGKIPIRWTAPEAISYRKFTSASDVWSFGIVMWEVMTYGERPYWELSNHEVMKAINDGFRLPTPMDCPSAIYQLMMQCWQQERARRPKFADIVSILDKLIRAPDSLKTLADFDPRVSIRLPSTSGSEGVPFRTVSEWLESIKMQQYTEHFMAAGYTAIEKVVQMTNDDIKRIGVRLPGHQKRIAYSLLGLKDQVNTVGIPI
T6 sequence (Q13464 whole entry): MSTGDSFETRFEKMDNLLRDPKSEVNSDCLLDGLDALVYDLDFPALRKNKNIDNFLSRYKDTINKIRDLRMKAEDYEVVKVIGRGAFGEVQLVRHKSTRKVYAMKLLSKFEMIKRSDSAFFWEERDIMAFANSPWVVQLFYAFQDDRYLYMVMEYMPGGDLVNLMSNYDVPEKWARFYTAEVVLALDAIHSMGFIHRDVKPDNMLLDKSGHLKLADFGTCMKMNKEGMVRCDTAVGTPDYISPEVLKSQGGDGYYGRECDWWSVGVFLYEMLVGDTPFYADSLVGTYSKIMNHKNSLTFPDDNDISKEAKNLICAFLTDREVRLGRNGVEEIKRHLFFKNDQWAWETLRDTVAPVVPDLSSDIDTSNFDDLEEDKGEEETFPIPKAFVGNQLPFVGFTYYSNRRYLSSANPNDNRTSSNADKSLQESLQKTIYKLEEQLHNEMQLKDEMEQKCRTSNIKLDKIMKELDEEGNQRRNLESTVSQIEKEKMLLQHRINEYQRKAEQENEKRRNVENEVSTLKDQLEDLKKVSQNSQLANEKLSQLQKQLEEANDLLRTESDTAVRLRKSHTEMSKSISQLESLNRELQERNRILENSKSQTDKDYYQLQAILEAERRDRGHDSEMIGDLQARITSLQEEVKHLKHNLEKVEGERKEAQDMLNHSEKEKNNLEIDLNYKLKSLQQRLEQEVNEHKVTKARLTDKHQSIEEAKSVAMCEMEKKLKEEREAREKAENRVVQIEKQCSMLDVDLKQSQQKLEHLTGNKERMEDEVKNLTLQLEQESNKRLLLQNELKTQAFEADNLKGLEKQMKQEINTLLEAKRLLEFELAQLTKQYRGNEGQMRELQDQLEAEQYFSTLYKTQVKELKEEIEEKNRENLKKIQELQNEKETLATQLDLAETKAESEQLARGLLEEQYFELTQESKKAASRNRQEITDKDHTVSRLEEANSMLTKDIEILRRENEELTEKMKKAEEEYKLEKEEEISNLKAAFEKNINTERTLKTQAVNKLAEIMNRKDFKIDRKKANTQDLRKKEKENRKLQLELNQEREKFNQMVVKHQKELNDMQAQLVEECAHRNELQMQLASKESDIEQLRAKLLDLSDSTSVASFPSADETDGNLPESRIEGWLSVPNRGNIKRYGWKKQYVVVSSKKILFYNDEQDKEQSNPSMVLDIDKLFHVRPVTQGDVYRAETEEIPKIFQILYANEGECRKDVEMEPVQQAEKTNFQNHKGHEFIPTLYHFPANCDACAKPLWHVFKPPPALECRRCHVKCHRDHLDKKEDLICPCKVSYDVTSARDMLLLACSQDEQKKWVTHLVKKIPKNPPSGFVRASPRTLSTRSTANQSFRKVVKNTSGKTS
T4 sequence (P42336 whole entry Q546K): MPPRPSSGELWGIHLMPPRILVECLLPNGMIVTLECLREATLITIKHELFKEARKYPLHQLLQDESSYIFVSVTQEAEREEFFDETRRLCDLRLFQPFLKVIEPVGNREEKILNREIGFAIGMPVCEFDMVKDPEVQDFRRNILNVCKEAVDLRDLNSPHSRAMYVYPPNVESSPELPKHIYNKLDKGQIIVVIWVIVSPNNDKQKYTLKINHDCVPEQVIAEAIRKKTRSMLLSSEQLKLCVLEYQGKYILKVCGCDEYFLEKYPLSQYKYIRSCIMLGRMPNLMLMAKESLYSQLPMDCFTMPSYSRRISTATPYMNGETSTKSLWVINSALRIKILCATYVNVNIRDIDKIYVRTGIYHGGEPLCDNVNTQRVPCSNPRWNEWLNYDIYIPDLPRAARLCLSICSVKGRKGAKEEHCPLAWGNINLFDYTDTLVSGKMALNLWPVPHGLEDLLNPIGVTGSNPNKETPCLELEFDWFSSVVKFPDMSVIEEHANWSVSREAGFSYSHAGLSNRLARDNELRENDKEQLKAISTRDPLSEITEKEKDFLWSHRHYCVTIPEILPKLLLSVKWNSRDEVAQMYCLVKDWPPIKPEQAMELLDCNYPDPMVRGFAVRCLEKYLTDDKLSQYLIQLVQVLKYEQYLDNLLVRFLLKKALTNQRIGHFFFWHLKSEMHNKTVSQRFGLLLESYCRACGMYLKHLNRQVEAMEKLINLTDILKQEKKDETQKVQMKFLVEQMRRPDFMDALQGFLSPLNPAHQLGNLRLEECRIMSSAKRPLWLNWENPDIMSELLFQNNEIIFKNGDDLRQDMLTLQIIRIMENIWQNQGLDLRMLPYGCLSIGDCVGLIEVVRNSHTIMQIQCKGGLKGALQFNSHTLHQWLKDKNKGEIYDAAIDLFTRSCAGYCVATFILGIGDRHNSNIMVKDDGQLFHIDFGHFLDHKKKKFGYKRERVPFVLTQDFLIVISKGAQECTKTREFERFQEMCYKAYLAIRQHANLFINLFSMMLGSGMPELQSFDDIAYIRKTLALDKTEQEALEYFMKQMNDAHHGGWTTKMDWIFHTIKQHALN
T8 sequence (Q96Q40 whole entry): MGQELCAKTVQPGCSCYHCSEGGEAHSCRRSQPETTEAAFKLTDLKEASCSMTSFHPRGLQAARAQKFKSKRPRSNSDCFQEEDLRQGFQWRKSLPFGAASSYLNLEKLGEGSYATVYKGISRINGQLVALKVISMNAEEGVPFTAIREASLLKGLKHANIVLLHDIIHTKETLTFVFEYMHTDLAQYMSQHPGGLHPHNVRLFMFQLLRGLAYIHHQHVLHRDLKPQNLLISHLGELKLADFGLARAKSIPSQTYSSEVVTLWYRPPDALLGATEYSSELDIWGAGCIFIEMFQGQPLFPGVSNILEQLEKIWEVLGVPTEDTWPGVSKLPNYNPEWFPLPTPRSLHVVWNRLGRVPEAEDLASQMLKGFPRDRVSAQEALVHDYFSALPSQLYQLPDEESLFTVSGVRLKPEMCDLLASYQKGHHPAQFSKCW

| Compound | remaining binding at 1 µM (panel of 468 kinases [1]) [%] | remaining binding at 1 µM (panel of 468 kinases [2]) [%] | remaining binding at 1 µM (panel of 468 kinases [3]) [%] | remaining binding at 1 µM (panel of 468 kinases [4]) [%] | remaining binding at 1 µM (panel of 468 kinases [5]) [%] | remaining binding at 1 µM (panel of 468 kinases [6]) [%] | remaining binding at 1 µM (panel of 468 kinases [7]) [%] | remaining binding at 1 µM (panel of 468 kinases [8]) [%] | remaining binding at 1 µM (panel of 468 kinases [9]) [%] |
| --- | --- | --- | --- | --- | --- | --- | --- | --- | --- |
| CNc1nc(Nc2ccc(S(=O)(=O)N3CCC(N4CCOCC4)CC3)cc2OC)nc2[nH]cc(Cl)c12 [Compound 12, 5-chloro-N2-(2-methoxy-4-((4-morpholinopiperidin-1-yl)sulfonyl)phenyl)-N4-methyl-7H-pyrrolo[2,3-d]pyrimidine-2,4-diamine] | 90 | 100 | 100 | 50 | 100 | 100 | 98 | 100 | 100 |
| CNc1nc(Nc2ccc(P3(=O)CCN(C4CCOCC4)CC3)cc2OC)nc2[nH]cc(Cl)c12 [Compound 77, 4-(4-((5-chloro-4-(methylamino)-7H-pyrrolo[2,3-d]pyrimidin-2-yl)amino)-3-methoxyphenyl)-1-(tetrahydro-2H-pyran-4-yl)-1,4-azaphosphinane 4-oxide] | 95 | 100 | 100 | 46 | 100 | 95 | 97 | 100 | 100 |
| CNc1nc(Nc2ccc(C(=O)N3CCC(N4CCOCC4)CC3)c3c2OCO3)nc2[nH]cc(Cl)c12 [Compound 75, (7-((5-chloro-4-(methylamino)-7H-pyrrolo[2,3-d]pyrimidin-2-yl)amino)benzo[d][1,3]dioxol-4-yl)(4-morpholinopiperidin-1-yl)methanone] | 99 | 100 | 96 | 65 | 100 | 35 | 96 | 100 | 100 |
